Test results: PMC3741113, “De-Novo Design of Antimicrobial Peptides for Plant Protection” (PLoS ONE, 2013)
Ends that are not written are not given here.

Columns and labels:
Xanthomonas vesicatoria = conditions: Table 4, incubation period 2d; LB-medium, 27°C
[1] = system: Clavibacter michiganensis ssp. michiganensis; conditions: Table 4, incubation period 2d; LB-medium, 27°C
[2] = system: Pectobacterium carotovorum ssp. carotovorum; conditions: Table 4, incubation period 1d; LB-medium, 27°C
Pseudomonas corrugata = conditions: Table 4, incubation period 2d; LB-medium, 27°C
[3] = system: Pseudomonas syringae pv. syringae; conditions: Table 4, incubation period 1d; LB-medium, 27°C
[4] = system: Pseudomonas syringae pv. tomato; conditions: Table 4, incubation period 1d; LB-medium, 27°C

Row | Substance | MIC (Xanthomonas vesicatoria) | MIC [1] | MIC [2] | MIC (Pseudomonas corrugata) | MIC [3] | MIC [4]
1 | KKKKIIKRLI-NH2 [SP1-17] | >10 µg/mL | >10 µg/mL | >10 µg/mL | 5.0 µg/mL | <0.1 µg/mL | 1.0 µg/mL
2 | KKKKKKIIKKII-NH2 [SP1-22] | >10 µg/mL | >10 µg/mL | >10 µg/mL | >10 µg/mL | 2.5 µg/mL | 1.0 µg/mL
3 | KRKKLLKRLI-NH2 [SP1-16] | 10 µg/mL | >10 µg/mL | >10 µg/mL | 0.5 µg/mL | 0.1 µg/mL | 1.0 µg/mL
4 | KRKKLLKRLL-NH2 [SP1-15] | 5.0 µg/mL | 5.0 µg/mL | >10 µg/mL | <0.1 µg/mL | 0.1 µg/mL | 1.0 µg/mL
5 | KRRILIRILKLIIKLILKKR-NH2 [SP13-5] | 1.0 µg/mL | 2.5 µg/mL | >10 µg/mL | 10 µg/mL | >10 µg/mL | 2.5 µg/mL
6 | KRRKAIKILKLIAKAIRKKR-NH2 [SP13-9] | 0.1 µg/mL | 0.25 µg/mL | >10 µg/mL | 0.25 µg/mL | >10 µg/mL | >10 µg/mL
7 | KRRKAIKILKLIAKLIRKKR-NH2 [SP13-8] | 0.1 µg/mL | 0.1 µg/mL | >10 µg/mL | 0.25 µg/mL | >10 µg/mL | 10 µg/mL
8 | KRRKLAFRAFRFALKAVLKK-NH2 [SP13-13] | 0.25 µg/mL | 0.5 µg/mL | >10 µg/mL | 0.25 µg/mL | 0.5 µg/mL | 2.5 µg/mL
9 | KRRKLAFRLFRLFLKLVLKK-NH2 [SP13-14] | 0.25 µg/mL | 0.5 µg/mL | >10 µg/mL | 2.5 µg/mL | 5.0 µg/mL | 2.5 µg/mL
10 | KRRKLIKILKLIAKLIRKKR-NH2 [SP13-7] | 0.1 µg/mL | 0.25 µg/mL | >10 µg/mL | 0.5 µg/mL | >10 µg/mL | 10 µg/mL
11 | KRRKLIKILKLIIKLIRKKR-NH2 [SP13-6] | 0.1 µg/mL | 0.1 µg/mL | >10 µg/mL | 2.5 µg/mL | 1.0 µg/mL | 2.5 µg/mL
12 | KRRLALFRAFRLALKSVLKK-NH2 [SP13-10] | 0.1 µg/mL | 0.1 µg/mL | >10 µg/mL | 0.25 µg/mL | >10 µg/mL | 1.0 µg/mL
13 | KRRLALFRLFRLALKLVLKK-NH2 [SP13-11] | 2.5 µg/mL | 2.5 µg/mL | >10 µg/mL | >10 µg/mL | >10 µg/mL | 2.5 µg/mL
14 | KRRLFLFRLFRLFLRLFLKK-NH2 [SP13-12] | 2.5 µg/mL | 2.5 µg/mL | >10 µg/mL | 10 µg/mL | >10 µg/mL | 5.0 µg/mL
15 | KRRLIARILRLAIRALVKKR-NH2 [SP13-1] | 0.5 µg/mL | 0.5 µg/mL | >10 µg/mL | 2.5 µg/mL | 1.0 µg/mL | 1.0 µg/mL
16 | KRRLIFRILKLFFRFLVKKR-NH2 [SP13-4] | 2.5 µg/mL | 1.0 µg/mL | >10 µg/mL | 5.0 µg/mL | 10 µg/mL | >10 µg/mL
17 | KRRLILRILRLAIRALVKKR-NH2 [SP13-2] | 0.25 µg/mL | 0.25 µg/mL | >10 µg/mL | 5.0 µg/mL | 5.0 µg/mL | 10 µg/mL
18 | KRRLILRILRLAIRILVKKR-NH2 [SP13-3] | 2.5 µg/mL | 2.5 µg/mL | >10 µg/mL | >10 µg/mL | >10 µg/mL | 10 µg/mL
19 | LRFAKKALKKLF-NH2 [SP10-3] | 2.5 µg/mL | 2.5 µg/mL | >10 µg/mL | 1.0 µg/mL | 0.25 µg/mL | 0.25 µg/mL
20 | LRFARRALRRLF-NH2 [SP10-9] | 1.0 µg/mL | 1.0 µg/mL | 2.5 µg/mL | 0.5 µg/mL | 0.25 µg/mL | 0.25 µg/mL
21 | LRFIKKILKKLI-NH2 [SP10-4] | 0.1 µg/mL | 0.25 µg/mL | 2.5 µg/mL | 2.5 µg/mL | 0.25 µg/mL | 1.0 µg/mL
22 | LRFLKKILKKLF-NH2 [SP10-1] | 2.5 µg/mL | 1.0 µg/mL | 2.5 µg/mL | 2.5 µg/mL | 2.5 µg/mL | 1.0 µg/mL

Row | Substance | MIC (Xanthomonas vesicatoria) | MIC [1] | MIC [2] | MIC (Pseudomonas corrugata) | MIC [3] | MIC [4]
23 | LRFLRRILRRLL-NH2 [SP10-8] | 0.5 µg/mL | 0.5 µg/mL | 2.5 µg/mL | 0.5 µg/mL | 0.5 µg/mL | 1.0 µg/mL
24 | LRIIRRILRRLI-NH2 [SP10-6] | 1.0 µg/mL | 2.5 µg/mL | 2.5 µg/mL | 2.5 µg/mL | 2.5 µg/mL | 1.0 µg/mL
25 | LRILRRLLRRLF-NH2 [SP10-7] | 5.0 µg/mL | 5.0 µg/mL | >10 µg/mL | 2.5 µg/mL | >10 µg/mL | 1.0 µg/mL
26 | LRKAKKIAKKLF-NH2 [SP10-11] | 0.5 µg/mL | 5.0 µg/mL | >10 µg/mL | 0.5 µg/mL | 0.1 µg/mL | 0.5 µg/mL
27 | RKKKAKIIKKII-NH2 [SP1-10] | >10 µg/mL | >10 µg/mL | >10 µg/mL | 10 µg/mL | 1.0 µg/mL | >10 µg/mL
28 | RKKKFKFFKRFF-NH2 [SP1-13] | 0.5 µg/mL | 0.25 µg/mL | >10 µg/mL | <0.1 µg/mL | 0.1 µg/mL | 2.5 µg/mL
29 | RKKKFKFFKRLF-NH2 [SP1-12] | 0.5 µg/mL | 0.5 µg/mL | >10 µg/mL | 0.25 µg/mL | 0.1 µg/mL | >10 µg/mL
30 | RKKKFKIFKRLF-NH2 [SP1-14] | 1.0 µg/mL | 1.0 µg/mL | >10 µg/mL | 0.5 µg/mL | <0.1 µg/mL | 1.0 µg/mL
31 | RKKKIKIIKKII-NH2 [SP1-9] | 2.5 µg/mL | 2.5 µg/mL | >10 µg/mL | 5.0 µg/mL | 0.5 µg/mL | 5.0 µg/mL
32 | RKKKIKIIKRLI-NH2 [SP1-8] | 2.5 µg/mL | 5.0 µg/mL | >10 µg/mL | 2.5 µg/mL | 0.25 µg/mL | –
33 | RKKKKKIIKKLI-NH2 [SP1-21] | >10 µg/mL | >10 µg/mL | >10 µg/mL | 2.5 µg/mL | 0.5 µg/mL | 2.5 µg/mL
34 | RKKKLKFFKRLF-NH2 [SP1-11] | 2.5 µg/mL | 2.5 µg/mL | >10 µg/mL | 0.25 µg/mL | 1.0 µg/mL | >10 µg/mL
35 | RKKKLKIIKRLI-NH2 [SP1-7] | 1.0 µg/mL | 2.5 µg/mL | >10 µg/mL | 0.5 µg/mL | 0.1 µg/mL | –
36 | RKKKLKVVKRLV-NH2 [SP1-6] | >10 µg/mL | 10 µg/mL | >10 µg/mL | >10 µg/mL | 5.0 µg/mL | 1.0 µg/mL
37 | RKKKVKLLKRLV-NH2 [SP1-3] | >10 µg/mL | >10 µg/mL | >10 µg/mL | 2.5 µg/mL | 0.25 µg/mL | 5.0 µg/mL
38 | RKKRKKLIKRLI-NH2 [SP1-19] | 5.0 µg/mL | 5.0 µg/mL | >10 µg/mL | 0.5 µg/mL | <0.1 µg/mL | >10 µg/mL
39 | RKKRKKLLKRLI-NH2 [SP1-20] | 10 µg/mL | 5.0 µg/mL | >10 µg/mL | 0.5 µg/mL | 0.25 µg/mL | 10 µg/mL
40 | RKKRKKLLKRLL-NH2 [SP1-18] | 5.0 µg/mL | 5.0 µg/mL | >10 µg/mL | 0.25 µg/mL | 0.1 µg/mL | 1.0 µg/mL
41 | RKKRLKVVKRLV-NH2 [SP1-4] | >10 µg/mL | >10 µg/mL | >10 µg/mL | >10 µg/mL | 5.0 µg/mL | 2.5 µg/mL
42 | RKKRLRVVRRLV-NH2 [SP1-5] | >10 µg/mL | >10 µg/mL | >10 µg/mL | 5.0 µg/mL | >10 µg/mL | 1.0 µg/mL
43 | RKKRVKLLKRLV-NH2 [SP1-2] | 5.0 µg/mL | 10 µg/mL | >10 µg/mL | 0.5 µg/mL | 2.5 µg/mL | 5.0 µg/mL
